This note sets out measurements from patent EP4603105A1, “PHARMACEUTICAL COMPOSITION CONTAINING CYCLIC COMPOUND HAVING SELECTIVE KRAS INHIBITORY EFFECT AGAINST HRAS AND NRAS” (CHUGAI SEIYAKU KABUSHIKI KAISHA, priority 2022, dated 2024).

Assay [1] has as its system human gastric cancer strain SNU-1. The format is cell-based. On the procedure:
(§1) A test compound was dispensed into a U-bottom 384-well plate as 40 nL serially diluted dimethyl sulfoxide solutions using a liquid handler Echo (LABCYTE). As for human gastric cancer strain SNU-1 (ATCC), a cell suspension was prepared so as to have 250 cells/40 µL in an RPMI-1640 medium (Sigma) supplemented with 10% fetal bovine serum (Sigma), a 2.5 g/L D-(+)-glucose solution, 10 mmol/L HEPES, and 1 mmol/L sodium pyruvate. This cell suspension was dispensed in an amount of 40 µL per well into a plate containing the test compound, and cultured at 37°C in a 5% carbon dioxide gas incubator. Seven days later, 20 µL of CellTiter-Glo (registered trademark) (Promega) was added to each well and luminescence was measured.

Assay [2] deals with human ovarian cancer strain OV7. The format is cell-based. On the procedure: A test compound was dispensed into a U-bottom 384-well plate as 40 nL serially diluted dimethyl sulfoxide solutions using a liquid handler Echo (LABCYTE). As for human ovarian cancer strain OV7 (ECACC), a cell suspension was prepared so as to have 250 cells/40 µL in a DMEM/Ham's F-12 medium (Nacalai Tesque) supplemented with 5% fetal bovine serum (Sigma), 0.5 µg/mL hydrocortisone, and 10 µg/mL insulin. This cell suspension was dispensed in an amount of 40 µL per well into a plate containing the test compound, and cultured at 37°C in a 5% carbon dioxide gas incubator. Seven days later, 20 µL of CellTiter-Glo (registered trademark) (Promega) was added to each well and luminescence was measured.

For assay [3], the target named is GDP-bound KRAS wild-type protein (Homo sapiens, UniProt P01116). Briefly: Binding to KRAS by surface plasmon resonance (SPR), dissociation constant KD. Summed up:
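Single-cycle kinetics on GDP-loaded biotin-Avi RAS captured to ~100–300 RU; 75 s ascending injections, 100 µL/min, 30°C. HBS pH 7.4 + 10 mM MgCl2/10 µM GDP/4% DMSO. 1:1 fit, KD.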

The test system of assay [4] is human lung cancer strain NCI-H441. The assay is classed as cell-based. Summed up:
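Step one: dispense the test compound in serial DMSO dilutions. Step three: add the reagent and measure […].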

The test system of assay [5] is human colorectal cancer strain GP2d. The format is cell-based. As for the experimental part:
(§2) A test compound was dispensed into a U-bottom 384-well plate as 40 nL serially diluted dimethyl sulfoxide solutions using a liquid handler Echo (LABCYTE). As for human colorectal cancer strain GP2d (ECACC), a cell suspension was prepared so as to have 500 cells/40 µL in a Dulbecco's modified Eagle medium supplemented with 10% fetal bovine serum (Sigma). This cell suspension was dispensed in an amount of 40 µL per well into a plate containing the test compound, and cultured at 37°C in a 5% carbon dioxide gas incubator. Seven days later, 20 µL of CellTiter-Glo (registered trademark) (Promega) was added to each well and luminescence was measured.

The target in assay [6] is GDP-bound NRAS wild-type protein (Homo sapiens, UniProt P01111). In words: Binding to NRAS by surface plasmon resonance (SPR), KD and KD ratio to KRAS. Summed up:
(§3)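 Biotinylated GDP-bound RAS was captured at about 100–300 RU. Running buffer: HBS pH 7.4, 10 mM MgCl2, 10 µM GDP, 1 mM DTT, 0.01% Tween 20, 4% DMSO.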
(In general: SPR reads the build-up and loss of mass on a sensor chip optically.)

For assay [7], the system named is human gastric cancer strain GSU. The assay is classed as cell-based. As for the experimental part:
as §2, with “gastric” for “colorectal”, “GSU (Institute of Physical and Chemical Research),” for “GP2d (ECACC),”, “200” for “500”, “an RPMI-1640” for “a Dulbecco's modified Eagle”, “medium (Sigma)” for “medium”

The test system of assay [8] is human pancreatic cancer strain KP4. The format is cell-based. As for the experimental part:
as §2, with “pancreatic” for “colorectal”, “KP4 (Institute of Physical and Chemical Research),” for “GP2d (ECACC),”, “DMEM/Ham's F-12” for “Dulbecco's modified Eagle”, “medium (Nacalai Tesque)” for “medium”

The subject of assay [9] is human bladder cancer strain UM-UC-3. The assay is classed as cell-based. On the procedure: as §1, with “human bladder” for “human gastric”, “strain UM-UC-3” for “strain SNU-1”, “an MEM” for “an RPMI-1640”, “medium (Nacalai Tesque)” for “medium (Sigma)”, “(Sigma), an MEM non-essential amino acids solution (100X),” for “(Sigma), a 2.5 g/L D-(+)-glucose solution, 10 mmol/L HEPES,”, “measured. […]” for “measured.”

Assay [10] deals with HRAS wild-type protein (Homo sapiens, UniProt P01112). Briefly: Binding to HRAS by surface plasmon resonance (SPR), KD and KD ratio to KRAS. A digest of the protocol: as §3
Where [11] appears, read: ratio of KD for GDP-bound NRAS wild-type protein to KD for KRAS.
The mark [12] stands for this setting: ratio of KD for HRAS wild-type protein to KD for KRAS.

The structures appear in SMILES notation.

Chain of HRAS wild-type protein (P01112 whole entry): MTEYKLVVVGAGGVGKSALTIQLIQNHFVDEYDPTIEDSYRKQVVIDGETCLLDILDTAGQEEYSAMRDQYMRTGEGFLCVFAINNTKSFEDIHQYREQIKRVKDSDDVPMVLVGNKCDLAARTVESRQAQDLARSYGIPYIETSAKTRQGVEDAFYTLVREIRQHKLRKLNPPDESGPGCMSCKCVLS
Chain of GDP-bound NRAS wild-type protein (P01111 whole entry): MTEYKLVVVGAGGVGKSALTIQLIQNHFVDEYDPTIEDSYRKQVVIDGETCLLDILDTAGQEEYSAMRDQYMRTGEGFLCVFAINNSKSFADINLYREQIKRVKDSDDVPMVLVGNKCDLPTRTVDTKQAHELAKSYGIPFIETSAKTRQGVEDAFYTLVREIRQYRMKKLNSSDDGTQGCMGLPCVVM
Chain of GDP-bound KRAS wild-type protein (P01116 1-188 isoform P01116-2): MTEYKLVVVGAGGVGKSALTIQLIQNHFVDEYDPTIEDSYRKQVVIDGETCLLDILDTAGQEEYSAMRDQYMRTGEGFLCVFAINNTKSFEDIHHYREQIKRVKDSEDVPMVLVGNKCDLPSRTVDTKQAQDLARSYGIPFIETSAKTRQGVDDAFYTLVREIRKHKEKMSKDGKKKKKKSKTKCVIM

The IC50 is the concentration that inhibits the measured activity by half. As usually defined, the Kd is a measure of binding affinity in units of concentration. Low values mean a tighter complex, high ones a looser complex. Consider `CCO[C@@H]1C[C@H]2C(=O)NC3(CCCC3)C(=O)N(C)[C@@H](C3CCCC3)C(=O)N(C)[C@H](C(=O)N(C)C)CC(=O)N(C)[C@@H](CC(C)C)C(=O)N[C@@H]([C@@H](C)CC)C(=O)N(C)CC(=O)N(C)[C@H]3C/C=C\CCN(C3=O)[C@@H](Cc3ccc(C)cc3)C(=O)N(C)CC(=O)N[C@@H](CCc3cc(F)c(C(F)(F)F)c(F)c3)C(=O)N2C1` [PP3478, (2S,8S,12R,14S,20S,23S,27S,30S,36S,38Z)-20-cyclopentyl-8-[2-[3,5-difluoro-4-(trifluoromethyl)phenyl]ethyl]-12-ethoxy-27-isobutyl-N,N,4,19,22,26,32,35-octamethyl-30-[(1S)-1-methylpropyl]-3,6,9,15,18,21,25,28,31,34,42-undecaoxo-2-(p-tolylmethyl)spiro[1,4,7,10,16,19,22,26,29,32,35-undecazatricyclo[34.5.1.0^10,14]dotetracont-38-ene-17,1'-cyclopentane]-23-carboxamide], for which the IC50 in assay [1] came to 4 nM; in assay [2] it was 14.4 nM; in assay [4], 5.8 nM; in assay [5], 5.1 nM; in assay [7], 0.9 nM; in assay [8], 15.1 nM. In assay [9], this compound yielded an IC50 of 2.9 nM. Moreover, in assay [3] (Single Cycle Kinetics), the equilibrium dissociation constant (Kd) came to 0.11 nM. For the same compound, in assay [6] (setting [11]), the “NRAS /KRAS” value was “A (a compound having 10 or more and less than 20 is denoted as A)”. For the same compound, in assay [10] (setting [12]), the “HRAS /KRAS” value is “A (a compound having 10 or more and less than 20 is denoted as A)”.
With `CCO[C@@H]1C[C@H]2C(=O)NC3(CC(C)(C)C3)C(=O)N(C)[C@@H](CC(C)(C)C)C(=O)N(C)[C@H](C(=O)N(C)C)CC(=O)N(C)[C@@H](COC)C(=O)N[C@@H]([C@@H](C)CC)C(=O)N(C3CC3)CC(=O)N(C)[C@H]3C/C=C\CCN(C3=O)[C@@H](Cc3ccc(C(F)(F)F)cc3)C(=O)N(C)CC(=O)N[C@@H](CCc3ccc(Cl)c(Cl)c3)C(=O)N2C1` [PP2750, (2S,8S,12R,14S,20S,23S,27S,30S,36S,38Z)-32-cyclopropyl-8-[2-(3,4-dichlorophenyl)ethyl]-20-(2,2-dimethylpropyl)-12-ethoxy-27-(methoxymethyl)-N,N,3',3',4,19,22,26,35-nonamethyl-30-[(1S)-1-methylpropyl]-3,6,9,15,18,21,25,28,31,34,42-undecaoxo-2-[[4-(trifluoromethyl)phenyl]methyl]spiro[1,4,7,10,16,19,22,26,29,32,35-undecazatricyclo[34.5.1.0^10,14]dotetracont-38-ene-17,1'-cyclobutane]-23-carboxamide], the IC50 in assay [1] was 24.2 nM; in assay [2] it was 31.8 nM; in assay [4], 19 nM; in assay [5], 23.6 nM; in [7] it was 1.9 nM; in assay [8] it was 56 nM. For the same compound, in assay [9], the IC50 was 20.6 nM. The same compound showed a Kd in assay [3] (1:1 binding model) of 0.54 nM. In assay [6] (setting [11]), the “NRAS /KRAS” value is “AA (a compound having 20 or more is denoted as AA)”. Also, the “HRAS /KRAS” value in [10] (setting [12]) was “A (a compound having 10 or more and less than 20 is denoted as A)”.
In the case of `CCC[C@H]1C(=O)N[C@@H]([C@@H](C)CC)C(=O)N2CCC[C@H]2C(=O)N(C)[C@H]2C/C=C\CCN(C2=O)[C@@H](Cc2ccc(C(F)(F)F)cc2)C(=O)N(C)CC(=O)N[C@@H](CCc2ccc(C(F)(F)F)c(OC)c2)C(=O)N2C[C@H](OCC)C[C@H]2C(=O)N(C)C2(CCC2)C(=O)N(C)[C@@H](C2CCCC2)C(=O)N(C)[C@H](C(=O)N(C)C)CC(=O)N1C` [PP2320, (1S,4S,10S,13S,17S,20S,26S,28R,32S,38S,42Z)-20-cyclopentyl-28-ethoxy-32-[2-[3-methoxy-4-(trifluoromethyl)phenyl]ethyl]-N,N,2,14,18,21,24,36-octamethyl-10-[(1S)-1-methylpropyl]-3,9,12,15,19,22,25,31,34,37,45-undecaoxo-13-propyl-38-[[4-(trifluoromethyl)phenyl]methyl]spiro[2,8, 11,14,18,21,24,30,33,36,39-undecazatetracyclo[37.5.1.0^4,8.0^26,30]pentatetracont-42-ene-23,1'-cyclobutane]-17-carboxamide], the IC50 worked out at 5.6 nM in [1]; 8.7 nM in assay [2]; 0.6 nM in assay [4]; 3.1 nM in [5]; 1.2 nM in assay [7]; 4.8 nM in [8]. The same compound displayed an IC50 in assay [9] of 1.3 nM. In [6] (ratio of the KD value with respect to GDP-bound NRAS wild-type protein to the KD value with respect to KRAS), the “NRAS /KRAS” value was “A (a compound having 10 or more and less than 20 is denoted as A)”. Moreover, the “HRAS /KRAS” value in assay [10] (ratio of the KD value with respect to HRAS wild-type protein to the KD value with respect to KRAS) was “A (a compound having 10 or more and less than 20 is denoted as A)”.
As for `CCO[C@@H]1C[C@H]2C(=O)NC3(CCCC3)C(=O)N(C)[C@@H](C3CCCC3)C(=O)N(C)[C@H](C(=O)N(C)C)CC(=O)N(C)[C@@H](CC(C)C)C(=O)N[C@@H]([C@@H](C)CC)C(=O)N(C)CC(=O)N(C)[C@H]3C/C(F)=C\CCN(C3=O)[C@@H](Cc3ccc(C(F)(F)F)cc3)C(=O)N(C)CC(=O)N[C@@H](CCc3cc(F)c(C(F)(F)F)c(F)c3)C(=O)N2C1` [PP3510, (2S,8S,12R,14S,20S,23S,27S,30S,36S,38E)-20-cyclopentyl-8-[2-[3,5-difluoro-4-(trifluoromethyl)phenyl]ethyl]-12-ethoxy-38-fluoro-27-isobutyl-N,N,4,19,22,26,32,35-octamethyl-30-[(1S)-1-methylpropyl]-3,6,9,15,18,21,25,28,31,34,42-undecaoxo-2-[[4-(trifluoromethyl)phenyl]methyl]spiro[1,4,7,10,16,19,22,26,29,32,35-undecazatricyclo[34.5.1.0^10,14]dotetracont-38-ene-17,1'-cyclopentane]-23-carboxamide], the IC50 in assay [1] was 6.6 nM; in assay [2], 23.6 nM; in [4] it was 11.1 nM; in [5], 13.7 nM; in [7] it was 1.2 nM; in assay [8] it was 16.8 nM. Further, in assay [9], it took 11.5 nM to reach half-maximal inhibition (IC50). The “NRAS /KRAS” value in assay [6] (setting [11]) was “B (a compound having 3 or more and less than 10 is denoted as B)”. For the same compound, the “HRAS /KRAS” value in assay [10] (setting [12]) was “B (a compound having 3 or more and less than 10 is denoted as B)”.
